Like-named read-outs stand apart in the source and are kept apart here. Values belong to the compound of their own block, whether it stands above or below them.
Tests used:
TNF-α [1] = test: In vitro whole cell assay: LPS-stimulated TNF-α production in PBMC (ELISA); format: cell-based; conditions: LPS-stimulated human PBMC
Description: In addition to the enzyme assay, many of the compounds of the invention were tested in an in vitro whole cell assay using peripheral blood mononuclear cells (“PBMC”) which were obtained from human blood as follows. Freshly obtained venous blood was anticoagulated with heparin, diluted with an equal volume of phosphate buffered saline (“PBS”) and placed in a sterile tube or other container. Aliquots (30 mL) of this mixture were transferred to centrifuge tubes which were underlaid with Ficoll-Hypaque (15 mL). The prepared tubes were centrifuged at 400×g without braking for 30 minutes at room temperature. Approximately ½ to ⅔ of the platelet layer above the mononuclear cell band was removed with a pipet. The majority of the mononuclear cell layer was carefully removed using a pipet and these PBMC's were diluted with PBS and spun at 600×g for 15 minutes. The resulting PBMC's were washed with another portion of PBS and spun at 400×g for 10 minutes at room temperature. The recovered pellets were diluted in low endotoxin RPMI/1% FCS culture medium and gave a cell concentration of 0.5-2.0×10^6 PBMC/ mL. A small volume of the suspension was removed for counting on a hemocytometer and the remaining preparation was centrifuged at 200×g for 15 minutes at room temperature. The recovered pelleted PBMC's were resuspended in RPMI/1% FCS to a concentration of 1.67×10^6/mL.
To run the assay, the PBMC suspension (180 μL) was transferred to duplicate wells of a 96-well flat-bottom microtiter plate and incubated for 1 hour at 37° C. A solution of test compound (10 μL: prepared at 20×the desired final concentration) was added to each well and the plate was incubated for 1 hour at 37° C. A solution (10 μL) of LPS in RPMI/1% FCS (200 ng/mL) was added and the wells were incubated overnight at 37° C. The supernatant (100 μL) was removed from each well and diluted with RPMI/1% FCS (400 μL). The samples were analyzed for TNF-α using a commercial ELISA kit (Genzyme).
Certain compounds of the invention are listed in Tables A and B. The compounds were tested for their ability to inhibit TNF-α in vitro. The data are listed as an IC50 or as the % inhibition at a given concentration.

p38 = p38 (Homo sapiens, UniProt Q16539); test: In vitro enzyme assay: inhibition of p38 activity; format: biochemical
Description: Compounds of the invention were measured for their ability to inhibit the activity of p38 by the following in vitro assay.
A solution (38 μL) of purified recombinant p38 (where the amount of enzyme was determined empirically considering the linear range of the assay and the acceptable signal to noise ratio; 6×His-p38 expressed in E. coli), myelin basic protein substrate (also determined empirically), and a buffer of pH 7.5 (Hepes:25 mM, MgCl2:10 mM, MnCl2:10 mM) were added to 92 wells of a 96-well round bottom polypropylene plate. The remaining wells were used for control (“CTRL”) and background (“BKG”).
The CTRL was prepared with the enzyme, substrate buffer and 2% DMSO, and the BKG was prepared with substrate buffer and 2% DMSO. […]
The contents of each well were transferred to the wells of a 96-well filterplate (Millipore, MultiScreen-DP) and the filterplate was placed on a vacuum manifold, fitted with a waste collection tray. […] MicroScint-20 scintillant was added, the plates were sealed using Topseal-S sheets and counted in a Packard TopCount scintillation counter using a ^33P liquid program with color quench correction, where the output is in color quench-corrected cpm.
The % inhibition of the test compounds was calculated by the following formula: % inhibition=[1−(sample −BKG)/(CTRL−BKG)]×100.

TNF-α [2] = test: In vivo LPS-induced TNF-α production, oral dosing; conditions: mouse, LPS 1 mg/kg i.p.
Description: Mice (BALB/cJ females, Jackson Laboratories) or rats (Lewis males, Charles River) were fasted for 30 minutes prior to oral dosing with 5-10 mL/kg of test compound at 5-50 mg/kg. Thirty minutes after dosing, the animals were injected intraperitoneally with LPS at 1 mg/kg and returned to their cages for 1 hour. Animals were anesthetized by CO2, exsanguinated by cardiac puncture and whole blood collected (0.1-0.7 mL). The blood was allowed to clot and serum was transferred to a centrifuge tube. This sample was centrifuged, serum was collected, aliquoted and frozen at −80° C. Samples were tested by commercial ELISA's for TNF-α (Endogen for mouse TNF-α and Biosource for rat TNF-α).

[3] = Table B, read-out: IC50 (TNF-α in vitro)

Chain of p38 (Q16539 whole entry): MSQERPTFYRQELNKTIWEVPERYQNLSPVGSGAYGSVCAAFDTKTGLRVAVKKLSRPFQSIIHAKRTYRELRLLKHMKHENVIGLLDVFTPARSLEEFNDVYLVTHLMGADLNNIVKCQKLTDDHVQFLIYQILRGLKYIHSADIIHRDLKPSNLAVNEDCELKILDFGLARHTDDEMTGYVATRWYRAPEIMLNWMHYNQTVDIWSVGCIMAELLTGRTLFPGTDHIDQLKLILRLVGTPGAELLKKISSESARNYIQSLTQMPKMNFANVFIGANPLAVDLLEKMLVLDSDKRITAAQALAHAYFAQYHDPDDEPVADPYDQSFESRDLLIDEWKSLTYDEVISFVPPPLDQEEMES

IC50 (TNF-α [1]; [3]): > 400 nM
SMILES: Fc1ccc(-c2c(-c3ccncc3)[nH]c3ccc4nc(Cc5ccccc5)[nH]c4c23)cc1 [Compound 10, 1,6-dihydro-7-(4-pyridyl)-8-(4-fluorophenyl)-2-phenylmethyl-pyrrolo[3,2-e]benzimidazole]

IC50 (TNF-α [1]; Table A, read-out: TNF-α IC50): 50 nM
SMILES: Fc1ccc(-c2[nH]c3ccc4nc(CCc5ccccc5)[nH]c4c3c2-c2ccncc2)cc1 [Compound 7, 1,6-dihydro-7-(4-fluorophenyl)-8-(4-pyridyl)-2-(2-phenylethyl)-pyrrolo[3,2-e]benzimidazole]

IC50 (TNF-α [1]; Table A, read-out: TNF-α IC50): 45 nM
SMILES: CCCCc1nc2ccc3[nH]c(-c4ccc(F)cc4)c(-c4ccncc4)c3c2[nH]1 [Compound 4, 1,6-dihydro-7-(4-fluorophenyl)-8-(4-pyridyl)-2-butyl-pyrrolo[3,2-e]benzimidazole]

The next lines start with the compound.

SMILES: Fc1ccc(-c2c(-c3ccncc3)[nH]c3ccc4c(ncn4CCCc4ccccc4)c23)cc1 [Compound 11, 3,6-dihydro-8-(4-fluorophenyl)-3-(3-phenylpropyl)-7-(4-pyridyl)-pyrrolo[3,2-e]benzimidazole]
inhibition at 0.4 µM (TNF-α [1]; @ 400 nM, Table B, read-out: % inhibition of TNF-α at a given concentration): 0%

SMILES: Fc1ccc(-c2[nH]c3ccc4[nH]c(Cc5ccccc5)nc4c3c2-c2ccncc2)cc1 [Compound 1, 1,6-Dihydro-7-(4-fluorophenyl)-8-(4-pyridyl)-2-phenylmethyl-pyrrolo [3,2-e] benzimidazole]
inhibition at 20 µM (p38): 44% | IC50 (TNF-α [1]; Table A, read-out: TNF-α IC50): 7 nM | inhibition of TNF-α (TNF-α [2]; 10 mg/kg): 74% | inhibition of TNF-α (TNF-α [2]; 25 mg/kg): 91%

SMILES: Fc1ccc(-c2c(-c3ccncc3)[nH]c3ccc4nc[nH]c4c23)cc1 [Compound 9, 1,6-dihydro-7-(4-pyridyl)-8-(4-fluorophenyl)-pyrrolo[3,2-e]benzimidazole]
IC50 (TNF-α [1]; [3]): 15 nM

SMILES: Fc1ccc(-c2[nH]c3ccc4nc(-c5ccccc5)[nH]c4c3c2-c2ccncc2)cc1 [Compound 2, 1,6-dihydro-7-(4-fluorophenyl)-8-(4-pyridyl)-2-phenyl-pyrrolo[3,2-e]benzimidazole]
IC50 (TNF-α [1]; Table A, read-out: TNF-α IC50): 20 nM
